Data reported in patent US11459547B2, “Method for producing osteoblast cluster using human iPS cells” (priority 2017, dated 2022).
Entries after “also recorded” stand apart in the source; their conditions may differ.

What was measured:
Type in all cases: cell-based
[1] = tested on: human iPS cell embryoid bodies (409B2); assay: Mesoderm differentiation induction of iPS cell embryoid bodies, immunofluorescent staining of mesodermal marker Brachyury; conditions: embryoid body formation 1 day, then static culture 5 days in mesoderm differentiation induction medium with 30 CHIR99021 and/or 5 cyclopamine; the label names the compound(s) present
Description: The iPS cells were washed with phosphate buffered saline (PBS), and treated with 1 ml of a CTK solution (0.25% trypsin, 0.1 mg/ml collagenase IV, 10 mM CaCl2), 20% KSR) at 37° C. for 1 minute. After that, the CTK solution was removed by aspiration, and 1 ml of PBS was added. PBS was removed, and only the feeder cells exfoliated from the culture plate were removed by aspiration as much as possible. After that, adherent iPS cells remaining in the culture plate were collected using 5 ml of ES medium (RCHEMD001) supplemented with 4 ng/ml FGF. The resultant cell suspension was transferred to a low-attachment culture dish (Thermo Fisher Scientific, Cat. #150239), and subjected to static culture for 1 day to induce the formation of embryoid bodies. As a control, the formation of embryoid bodies was performed for 0 days or 4 days.
After static culture had been performed for 1 day, iPS cell embryoid bodies were collected. […] As a control, osteoblastic differentiation induction described in (1-4) was performed after the embryoid body formation described in (1-2) without mesoderm differentiation induction. For the evaluation of mesoderm differentiation induction, immunofluorescent staining using a mesodermal marker Brachyury was performed.

[2] = tested on: human iPS cell embryoid bodies (409B2); assay: Mesoderm induction ratio by immunofluorescent staining of Brachyury; conditions: embryoid body formation 1 day; mesoderm differentiation induction medium with or free of CHIR99021 or cyclopamine; the label names the compound(s) present; 17% in the absence of both
Description: The immunostaining was pertained using: anti-Brachyury polyclonal antibody (AF2085, R&D SYSTEMS) as a primary antibody; Alexa Fluor594-labeled anti-goat IgG antibody (Thermo Fisher Scientific) as a secondary antibody; and Hoechst 33258 (Thermo Fisher Scientific) for nuclear staining.
The mesoderm induction ratio was determined from the ratio of Brachyury-positive embryoid bodies in all embryoid bodies present in an immunostaining photographic image.

[3] = tested on: human iPS cell-derived mesoderm cell constructs; assay: Osteoblastic differentiation induction with small-molecule compound, histochemical observation of mineralization (von Kossa)
Description: As a control, non-adherent culture was performed without shaking. The medium was changed every 7 days. The resultant sample was subjected to immunofluorescent staining, specifically hematoxylin and eosin (H&E) staining, von Kossa staining, or Osteocalcin, and subjected to histochemical observation.

[4] = tested on: human iPS cell embryoid bodies; assay: Comparative Example: retinoic acid culture instead of mesoderm induction, then osteoblastic differentiation induction; shape of cell construct; conditions: ES medium 2 days, then 2 days with 1 µM retinoic acid, then osteoblastic differentiation induction without mesoderm induction step
Description: iPS cells were obtained in accordance with the method described in (1-1) above, and subjected to culture in an ES medium corresponding to (1-2) above for 2 days. The resultant embryoid bodies of the iPS cells were collected, and further cultured for 2 days using the above-mentioned ES medium having blended therein 1 µM retinoic acid (all-trans retinoic acid: Sigma). After that, the step of inducing differentiation into osteoblasts described in (1-4) above was performed without the step of inducing differentiation into mesoderm cells described in (1-3) above.

SMILES: CC1=C2C[C@H]3[C@@H](CC=C4C[C@@H](O)CC[C@@]43C)[C@@H]2CC[C@]12O[C@@H]1C[C@H](C)CN[C@H]1[C@H]2C [cyclopamine]
- expression of the mesodermal marker (Brachyury), immunofluorescent staining [1]: the expression of Brachyury was found, though not as marked as in the presence of CHIR99021

SMILES: Cc1c[nH]c(-c2cnc(NCCNc3ccc(C#N)cn3)nc2-c2ccc(Cl)cc2Cl)n1 [CHIR99021]
- expression of the mesodermal marker (Brachyury), immunofluorescent staining [1]: marked expression of Brachyury was similarly found
- mesoderm induction ratio (ratio of Brachyury-positive embryoid bodies in all embryoid bodies) [2]: 57%

SMILES: CC(=O)N(O)CCCCCNC(=O)CCC(=O)N(O)CCCCCNC(=O)CCC(=O)N(O)CCCCCN [desferrioxamine]
- mineralization of cell construct on day 30 ([3]; day 30 of the osteoblastic differentiation induction, 10 μM desferrioxamine): markedly mineralized cell construct
- mineralization of osteoblast construct ([3]; osteoblastic differentiation induction medium supplemented with 10 μM desferrioxamine or 1 μM simvastatin, non-adherent shaking culture): markedly mineralized osteoblast construct

SMILES: CC1=C(/C=C/C(C)=C/C=C/C(C)=C/C(=O)O)C(C)(C)CCC1 [retinoic acid, all-trans retinoic acid]
- shape of resultant osteoblast-like cell construct [4]: not solid cell constructs, but were bag-like; also recorded: hollow bag-like (sac-like) shape
